# Source: patent US9840515B2, “Protein kinase D inhibitors” (University of Pittsburgh—Of the Commonwealth System of …, priority 2010, dated 2017)
# Where a name gives a salt, the structure may show the parent alone.
row,SMILES,melting point
1,"COc1ccc2sc3c(c2c1)OCCCNC3=O [kb-NB184-57, 2,3,4,5-Tetrahydro-10-methoxybenzo[b]thieno[2,3-f]-1,5-oxazocin-6-one]",233 to 237 °C
2,"O=c1oc2ccc(O)c(Cl)c2c2c1NCCC2 [kb-NB96-47-1, 10-Chloro-9-hydroxy-1,2,3,4-tetrahydrochromeno[3,4-b]pyridin-5-one]",211 to 213 °C
3,"COc1ccc2sc3c(c2c1)[S+]([O-])CCNC3=O (stereo not shown) [kb-NB184-45, 3,4-Dihydro-9-methoxy-1-oxide-[1]benzothieno[2,3-f]-1,4-thiazepin-5(2H)-one]",215 to 217 °C
4,"COc1ccc2oc3c(c2c1)CCN(C)C3=O [kb-NB123-37, 6-Methoxy-2-methyl-2,3,4-trihydrobenzo[b]pyridino[4,3-d]furan-1-one]",168 to 172 °C
5,"O=C(OCc1ccccc1)N1CCCc2c1c(=O)oc1ccc(O)cc21 [kb-NB77-91, Phenylmethyl 9-hydroxy-5-oxo-1,2,3,4-tetrahydrochromeno[3,4-b]pyridine-4-carboxylate]",235 to 237 °C
6,"CC(=O)Oc1ccc2oc3c(c2c1)CCCN(C(C)=O)C3=O [kb-NB123-45-1, 2-Acetyl-1-oxo-3H,4H,5H-azepino[5,6-d]benzo[b]furan-7-yl acetate]",155 to 157 °C
7,"CN1CCCc2c(oc3ccc(O)cc23)C1=O [kb-NB142-25, 7-Hydroxy-2-methyl-3,4,5-trihydro-[1]benzoxolo[2,3-c]azepin-1-one]",282 to 284 °C
8,"O=C1NCCc2c1oc1ccc(O)cc21 [kb-NB123-23A, 6-Hydroxy-2,3,4-trihydrobenzo[b]pyridino[4,3-d]furan-1-one]",265 to 268 °C
9,"CC(=O)Oc1ccc2oc3c(c2c1)CCCNC3=O [kb-NB123-36, 7-Acetoxy-2,3,4,5-tetrahydro-[1]benzoxolo[2,3-c]azepin-1-one]",196 to 197 °C
10,"O=C1NCCSc2c1sc1c(OCc3ccccc3)cccc21 [kb-NB184-38, 3,4-Dihydro-7-benzyloxy-[1]benzothieno[2,3-f]-1,4-thiazepin-5(2H)-one]",213 to 215 °C
11,"O=C1NCCCOc2c1sc1ccc(OCc3ccccc3)cc21 [kb-NB184-36, 2,3,4,5-Tetrahydro-10-benzyloxybenzo[b]thieno[2,3-f]-1,5-oxazocin-6-one]",195 to 200 °C
12,"O=C1NCCSc2c1[s+]([O-])c1ccc(O)cc21 (stereo not shown) [kb-NB184-22, 3,4-Dihydro-9-hydroxy-6-oxide-[1]benzothieno[2,3-f]-1,4-thiazepin-5(2H)-one]",160 to 163 °C (dec.)
13,"COc1cccc2c3c(sc12)C(=O)NCCS3 [kb-NB184-44, 3,4-Dihydro-7-methoxy-[1]benzothieno[2,3-f]-1,4-thiazepin-5(2H)-one]",220 to 224 °C
14,"O=C1NCCSc2c1sc1ccc(OCc3ccccc3)cc21 [kb-NB123-66, 3,4-Dihydro-9-benzyloxy-[1]benzothieno[2,3-f]-1,4-thiazepin-5(2H)-one]",247 to 249 °C
15,"COc1ccc2oc3c(c2c1)CCCN(C)C3=O [kb-NB96-04, 7-Methoxy-2-methyl-3H,4H,5H-azepino[5,6-d]benzo[b]furan-1-one]",150 to 151 °C
16,"O=C1NCCSc2c1sc1cnc(O)nc21 (as salt: hydrochloride) [kmg-NB4-69A, 2-Hydroxy-7H,8H,9H-1,4-thiazepino[7′,6′-5,4]thiopheno[3,2-d]pyrimidin-6-one]",335.9 °C (dec.)
17,"O=C1NCCSc2c1sc1c(O)cccc21 [kb-NB184-40, 3,4-Dihydro-7-hydroxy-[1]benzothieno[2,3-f]-1,4-thiazepin-5(2H)-one]",269 to 272 °C (dec.)
18,"COc1ccc2oc3c(c2c1)CCCNC3=O [kb-NB77-56, 7-Methoxy-2,3,4,5-tetrahydro-[1]benzoxolo[2,3-c]azepin-1-one]",261 to 263 °C
19,CC(C)(C)[Si](C)(C)Oc1ccc2oc3c(c2c1)CCCNC3=O,209 to 212 °C
